Measurements published in patent publication US12391737B2, “Soluble NPY2 receptor agonists” (Boehringer Ingelheim International GmbH, priority 2020, dated 2025).

Legend:
[1] = biological target: T1, Human Neuropeptide Y2 Receptor (Homo sapiens, UniProt P49146); assay: Radioligand binding competition assay (RLB); settings: Table 3, 125I-PYY(1-36) competition; read-out: Ki
T1 construct: purchased CHEMICON HTS066M
T1 sequence (P49146 1-381): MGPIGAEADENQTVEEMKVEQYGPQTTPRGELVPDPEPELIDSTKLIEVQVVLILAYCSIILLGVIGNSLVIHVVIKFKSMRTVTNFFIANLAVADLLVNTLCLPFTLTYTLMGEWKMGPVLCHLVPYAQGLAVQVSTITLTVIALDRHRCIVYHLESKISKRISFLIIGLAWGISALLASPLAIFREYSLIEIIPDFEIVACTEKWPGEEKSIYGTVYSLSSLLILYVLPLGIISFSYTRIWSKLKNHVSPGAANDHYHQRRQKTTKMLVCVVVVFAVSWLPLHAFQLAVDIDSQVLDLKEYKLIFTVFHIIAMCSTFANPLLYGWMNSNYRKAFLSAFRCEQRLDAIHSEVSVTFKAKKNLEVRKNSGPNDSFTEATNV
Procedure, shortened: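 Receptor membranes, 0.5 μg/well; buffer 50 mM HEPES/5 mM MgCl2/1 mM CaCl2/0.2% ovalbumin, pH 7.4; 2 h RT, shaking. GF/C filtration, cold HEPES/500 mM NaCl wash, scintillation count. IC50 by nonlinear regression.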

[2] = Solubility determination; settings: for Sol6: pH 6; for Sol7: pH 7
Procedure, shortened: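 Solubility is derived from the ratio of reversed-phase peak areas, filtered sample over a control dissolved at 1 mg/ml in 50% acetonitrile. Peptides are agitated for 2 hours at room temperature in 0.1 M sodium diphosphate at pH 6.4 or 7.0, aiming at 10 mg/ml.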

SMILES	Ki [1]	Sol6 [2]	Sol7 [2]
CC(C)CC(=O)N[C@@H](C)C(=O)N1CCC[C@H]1C(=O)N[C@@H](CCC(=O)O)C(=O)N[C@@H](CCCCNC(=O)CCCCCNC(=O)CC[C@H](NC(=O)CCCCCCCCCCCCCCCCC(=O)O)C(=O)O)C(=O)N1CCC[C@H]1C(=O)N[C@@H](CCC(=O)O)C(=O)N[C@@H](C)C(=O)N[C@@H](CC(=O)O)C(=O)N[C@@H](C)C(=O)N[C@@H](CO)C(=O)N1CCC[C@H]1C(=O)N[C@@H](CCC(=O)O)C(=O)N[C@@H](CCC(=O)O)C(=O)N[C@H](C(=O)N[C@@H](CCC(N)=O)C(=O)N[C@@H](CCCNC(=N)N)C(=O)N[C@@H](Cc1ccc(O)cc1)C(=O)N[C@@H](Cc1ccc(O)cc1)C(=O)N[C@H](C(=O)N[C@@H](CO)C(=O)N[C@@H](CC(C)C)C(=O)N[C@@H](CCCNC(=N)N)C(=O)N[C@@H](Cc1c[nH]cn1)C(=O)N[C@@H](Cc1ccc(O)cc1)C(=O)N[C@@H](Cc1ccc(O)cc1)C(=O)N[C@@H](CC(N)=O)C(=O)N[C@@H](Cc1c[nH]c2ccccc12)C(=O)N[C@@H](CC(C)C)C(=O)N[C@H](C(=O)N[C@@H](CCCNC(=N)N)C(=O)N[C@@H](CCC(N)=O)C(=O)N[C@@H](CCCNC(=N)N)C(=O)N[C@@H](Cc1ccc(O)cc1)C(N)=O)[C@@H](C)O)C(C)C)[C@@H](C)O [Compound 13, N{alpha-4}-(3-methylbutanoyl)-N{epsilon-7}-(6-[(4S)-4-carboxy-4-(17-carboxyheptadecanamido)butanamido]hexanoyl)[4A,7K,9E,10A,17T,18Q,22V,28Y,30W,31L]-hPYY(4-36)]	1.53 nM	10.0 mg/mL	10.0 mg/mL
CC(C)CC(=O)N[C@@H](C)C(=O)N1CCC[C@H]1C(=O)N[C@@H](CCC(=O)O)C(=O)N[C@@H](CCCCNC(=O)CCCCCNC(=O)CC[C@H](NC(=O)CCCCCCCCCCCCCCCCC(=O)O)C(=O)O)C(=O)N1CCC[C@H]1C(=O)N[C@@H](CCC(=O)O)C(=O)N[C@@H](CCC(=O)O)C(=O)N[C@@H](CC(=O)O)C(=O)N[C@@H](C)C(=O)N[C@@H](CCC(=O)O)C(=O)N1CCC[C@H]1C(=O)N[C@@H](CCC(=O)O)C(=O)N[C@@H](CCC(=O)O)C(=O)N[C@@H](CC(C)C)C(=O)N[C@@H](CCC(N)=O)C(=O)N[C@@H](CCC(=O)O)C(=O)N[C@@H](Cc1ccc(O)cc1)C(=O)N[C@@H](Cc1ccc(O)cc1)C(=O)N[C@H](C(=O)N[C@@H](CO)C(=O)N[C@@H](CC(C)C)C(=O)N[C@@H](CCCNC(=N)N)C(=O)N[C@@H](Cc1c[nH]cn1)C(=O)N[C@@H](Cc1ccc(O)cc1)C(=O)N[C@@H](Cc1ccc(O)cc1)C(=O)N[C@@H](CC(N)=O)C(=O)N[C@@H](Cc1c[nH]c2ccccc12)C(=O)N[C@@H](CC(C)C)C(=O)N[C@H](C(=O)N[C@@H](CCCNC(=N)N)C(=O)N[C@@H](CCC(N)=O)C(=O)N[C@@H](CCCNC(=N)N)C(=O)N[C@@H](Cc1ccc(O)cc1)C(N)=O)[C@@H](C)O)C(C)C [Compound 138, N{alpha-4}-(3-methylbutanoyl)-N{epsilon-7}-(6-[(4S)-4-carboxy-4-(17-carboxyheptadecanamido)butanamido]hexanoyl)-[4A,7K,9E,13E,18Q,19E,22V,28Y,30W,31L]-hPYY(4-36)]	12.5 nM	9.9 mg/mL	9.5 mg/mL
